Like-named read-outs stand apart in the source and are kept apart here.
Experiments:
[1] = biological target: benzodiazepine site of the GABA-A receptor; experiment: Benzodiazepine Receptor Binding Assay (inhibition of 3H-flunitrazepam binding); details: ca. 3 nM 3H-flunitrazepam
[2] = Suppression of anxiety (punished licking, conflict test) in the adult male rat; type: in vivo, male rats
Method: The anxiolytic activity of selected compounds of the invention was assessed by determining their ability to release (disinhibit) behavior that had been suppressed by punishment (Vogel, J. R. et al. Psychopharmacology 1971, 21, 1). Male rats were deprived of water for 48 hours and were deprived of food for 24 hours prior to testing. After the first 24 hours of water deprivation, they were placed in the conflict chamber for a training period; wherein, they were allowed 200 unpunished licks from a bottle containing tap water. The experiment was run the next day. At the expected time of peak activity, the animals were placed in the chamber and allowed access to tap water. […] Their first lick initiates a 3-min test session. Subsequently,every 20th lick was punished by a 0.2-s shock delivered via the stainless-steel drinking-tube. Vehicle-treated control animals generally were willing to accept a median number of 3 to 8 shocks per test session. […] The Wilcoxon rank-sum test (Mann-WhitneyU-test) was used to test for an increase (p<0.05, 1-tailed) in the median number of shocks in drug-treated groups, compared to a concurrently run vehicle-treated group. The biological assay is considered to be valid if the effects of a known anxiolytic (positive control) are detected, within the same experiment. A compound was considered active if there is a significant difference in the median number of shocks tolerated between the drug-treated group and the control group. The MED was defined as the minimum dose of the drug-treatment as analyzed using the Wilcoxon rank-sum test (SAS; Statistical Analysis System, version 5.16). If the MED value is greater than 10, an active dose of the compound being tested had not been determined.

[3] = Suppression of metrazol-induced convulsions; type: in vivo, male CD1 mice; details: Mus musculus, 0.5 h, mice
Method: Selected compounds of the invention were tested for their ability to reduce metrazol-induced convulsions in mice (Swinyard, E. A. J. Am. Pharm Assoc. 1949, 38, 201). Male CD1 mice, were fasted at least 16 hours, were divided into equal groups and test compounds or vehicle were administered parenterally. Water was not withheld except during the period of observations. At the time of suspected peak activity, anti-pentylenetetrazol (anti-metrazol) activity was evaluated by the subcutaneous administration of the CD90 dose of metrazol (the dose of metrazol was determined from the dose-response curve producing clonic convulsions in 90% of animals that received the corresponding vehicle for this experiment). Metrazol was dissolved in 0.9% sodium chloride solution, and its dose volume was 10 ml/kg. Animals were housed individually for observation of clonic convulsions, tonic convulsions and death for a period of 30 min. Test compounds that blocked the clonic seizure component of the convulsion in at least 50% of the animals were considered active. The biological assay was considered to be valid if the effects of a known anticonvulsant (positive control) were detected, within the same experiment. Activity was reported as percent reduction of clonic convulsions from the vehicle group. The ED50 values of active compounds were calculated by the method of probits (Finney, D. J. 1971. Probit Analysis. London: Cambridge University Press) and are listed in Tables 1 to 5.

[4] = Table 1, 25° C., 10-20 min, >10,000 = not active
[5] = Table 1, ip, minimum effective dose, >10 = active dose not determined, read-out: Conflict (ip) MED
[6] = Table 1, ip, clonic convulsions after sc CD90 metrazol, >30 = active dose not determined, read-out: Metrazol (ip) ED50

Row | Compound | IC50 [1, 4] | minimal effective dose [2, 5] | ED50 [3, 6] | other results
1 | O=C1CCN2C(=C1C(=O)Nc1ccc3c(c1)CCN3)Nc1ccccc12 [compound 33] | 54 nM | 10 mg/kg | > 30 mg/kg | 
2 | CN(C)c1cccc(NC(=O)C2=C3Nc4ccccc4N3CCC2=O)c1 [compound 34] | 37 nM | > 10 mg/kg | 4 mg/kg | 
3 | O=C1CCN2C(=C1C(=O)Nc1ccncc1)Nc1ccccc12 [compound 35] | 160 nM | 3 mg/kg | 2 mg/kg | 
4 | O=C1CCN2C(=C1C(=O)Nc1c(F)cccc1F)Nc1ccccc12 [compound 36] | 2.8 nM | 0.1 mg/kg | 1 mg/kg | 
5 | COc1ccc2c(c1)NC1=C(C(=O)NC3CCCCC3)C(=O)CCN12 [compound 37] | 800 nM | 10 mg/kg | 10 mg/kg | 
6 | CCCCNC(=O)C1=C2Nc3ccccc3N2CCC1=O [compound 38] | 54 nM | > 10 mg/kg | > 10 mg/kg | 
7 | O=C1CCN2C(=C1C(=O)Nc1ccncn1)Nc1ccccc12 [compound 39] | 480 nM | 10 mg/kg | > 10 mg/kg | 
8 | CSc1ccccc1NC(=O)C1=C2Nc3ccccc3N2CCC1=O [compound 40] | 720 nM | > 10 mg/kg | > 10 mg/kg | 
9 | O=C1CCN2C(=C1C(=O)Nc1ccc3ncccc3c1)Nc1ccccc12 [compound 41] | 130 nM | > 10 mg/kg | > 30 mg/kg | 
10 | O=C1CCN2C(=C1C(=O)NC1CC1)Nc1ccccc12 [compound 43] | 16 nM | > 10 mg/kg | > 10 mg/kg | 
11 | O=C1CCN2C(=C1C(=O)Nc1ccc(Br)cc1)Nc1ccccc12 [compound 44] | 130 nM | > 10 mg/kg | 3 mg/kg | 
12 | O=C1CCN2C(=C1C(=O)Nc1ccc(F)cc1)Nc1ccccc12 [compound 45] | 430 nM | 10 mg/kg | > 30 mg/kg | 
13 | O=C1CCN2C(=C1C(=O)Nc1ncccn1)Nc1ccccc12 [compound 46] | 54 nM | 10 mg/kg | 3 mg/kg | 
14 | Nc1ccccc1NC(=O)C1=C2Nc3ccccc3N2CCC1=O [compound 47] | 50 nM | 10 mg/kg | 3 mg/kg | 
15 | O=C1CCN2C(=C1C(=O)Nc1ccc3cn[nH]c3c1)Nc1ccccc12 [compound 48] | 350 nM | 10 mg/kg | > 30 mg/kg | 
16 | CN(C)c1ccc(NC(=O)C2=C3Nc4ccccc4N3CCC2=O)c(F)c1 [compound 86] | 120 nM |  | 1 mg/kg | 
17 | O=C1CCN2C(=C1C(=O)Nc1c(Cl)cc(Cl)cc1Cl)Nc1ccccc12 [compound 101] |  | > 10 mg/kg | > 10 mg/kg | 
18 | O=C1CCN2C(=C1C(=O)Nc1ccncc1F)Nc1cc(F)ccc12 [compound 110] | 12 nM |  |  | 
19 | O=C1CCN2C(=C1C(=O)Nc1ccc(F)cc1F)Nc1cc(F)ccc12 [compound 111] | 3.3 nM |  |  | 
20 | O=C1CCN2C(=C1C(=O)Nc1c(Cl)cccc1Cl)Nc1cc(F)ccc12 [compound 112] | 100 nM |  |  | 
21 | O=C1CCN2C(=C1C(=O)Nc1cccnc1F)Nc1ccccc12 [compound 116] |  | > 10 mg/kg | 2 mg/kg | 
22 | O=C1CCN2C(=C1C(=O)Oc1ccccc1)Nc1ccccc12 [compound 118] |  |  |  | IC50 ([1]; Table 2): 200 nM; ED50 ([3]; Table 2, ip, clonic convulsions, read-out: Antimetrazol (ip) ED50): 3 mg/kg
23 | CC1CN2C(=C(C(=O)Nc3ccccc3F)C1=O)N(C)c1ccccc12 (stereo not drawn) [compound 132] |  |  |  | minimal effective dose ([2]; Table 3, minimum effective dose, read-out: Conflict MED): < 10 mg/kg; ED50 ([3]; Table 3, parenteral, clonic convulsions, read-out: Antimetrazol ED50): 1 mg/kg
24 | O=C1CCCN2C(=C1C(=O)Nc1ccncc1)N(Cc1ccccc1)c1ccccc12 [compound 154] |  |  |  | IC50 ([1]; Table 5): 6700 nM; ED50 ([3]; Table 5, parenteral, clonic convulsions, read-out: Antimetrazol ED50): > 10 mg/kg

From patent publication US6218384A, “3-Oxo-pyrido(1,2-a)benzimidazole-4-carboxyl and 4-oxo-azepino(1,2-a)benzimidazole-5-carboxyl derivatives useful in treating central nervous system disorders” (Ortho-McNeil Pharmaceutical, Inc., priority 1997, dated 2001)
